Columns and labels:
Assay in all cases: area under concentration-response curve (viability) (AUC (a.u.)); higher = less active
Conditions in all cases: 48 h
CU-ACC1 = system: CU-ACC1
Method in brief: (§1)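 Three adrenocortical carcinoma cell lines were plated in 1,536-well plates at 500–1,000 cells/well in 5 µL medium, and 23 nL of each library compound was added at 11 concentrations. After 48 h, CellTiter-Glo was applied for 15 minutes at room temperature before luminescence was read. Each plate's signals were normalised to vehicle and empty-well controls. AC50 and area under the curve were taken from fitted concentration-response curves, with only inhibitory or non-responding curve classes retained.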

NCI-H295R = system: NCI-H295R
Method in brief: as §1

CU-ACC2 = system: CU-ACC2
Method in brief: as §1

SMILES	area under concentration-response curve (CU-ACC1)	area under concentration-response curve (NCI-H295R)	area under concentration-response curve (CU-ACC2)
COc1cc(F)c(C(C)C)cc1-c1ccc(C(F)(F)F)cc1CN1C(=O)O[C@H](c2cc(C(F)(F)F)cc(C(F)(F)F)c2)[C@@H]1C	421	428	505
Nc1ncnc2c1C(=O)N(c1ccc([C@H]3CC[C@H](CC(=O)O)CC3)cc1)CCO2	497	509	554
N[S+](=O)([O-])NCCNc1nonc1/C(=N/O)Nc1ccc(F)c(Br)c1	524	468	595
CN1C(=O)N[C@@H](Cc2c[nH]c3c(Cl)cccc23)C1=O	531	535	512
C[C@@H]1C[C@H]2[C@@H]3CCC\4=C\C(=O)\C=C/[C@]4(C)[C@@]3(F)[C@@H](O)C[C@]2(C)[C@@]1(O)C(=O)CO	515	481	588
O=C(CCCc1ccc2cccnc2n1)NCc1cc(-c2ccc(F)c(C(F)(F)F)c2)no1	512	491	615
Cc1nnc(C(C)C)n1C1CC2CCC(C1)N2CC[C@H](NC(=O)C1CCC(F)(F)CC1)c1ccccc1 (stereo partly drawn)	561	559	533
O=C1N(c2ccccc2)c2ccccc2C1(Cc1ccncc1)Cc1ccncc1	448	504	543
CC(C)NCC(O)c1ccc(N[S+](C)(=O)[O-])cc1 (stereo not drawn)	530	570	624
CN1\C(=C(\O)C2=C(C=CC=C2)[S+]1([O-])=O)C(=O)NC3=CC=CC=N3	432	464	495
C[C@H](NC(=O)Cc1cc(F)cc(F)c1)C(=O)N[C@H](C(=O)OC(C)(C)C)c1ccccc1	570	572	677
C=C1C(=O)OC(CCCCCCCC)C1C(=O)O (stereo not drawn)	409	437	457
CN[C@@H](C)C(=O)N[C@H]1CN(C(=O)CC(C)C)CC[C@H]2CC[C@@H](C(=O)NC(c3ccccc3)c3ccccc3)N2C1=O	338	420	372
O=C(O)c1cccnc1	579	548	604
OC1=CC=C(C=C1)\C2=C\OC3=C(C(=CC(=C3)O)O)C2=O	435	555	499
O=C(O)C1CCCN(CCC=C(c2ccccc2)c2ccccc2)C1 (stereo not drawn)	540	539	520
[NH2][Pt]([NH2])([Cl])[Cl]	528	514	576
CC(=O)OCC(=O)[C@@]12\N=C(C)/O[C@@H]1C[C@H]3[C@@H]4CCC/5=C/C(=O)/C=C\[C@]5(C)[C@H]4[C@@H](O)C[C@]23C	483	514	581
C=CCN(/C=C1\C(=O)O[C@@H](COC)[C@]2(C)C1=C(O)C(=O)C1=C2[C@@H](OC(C)=O)C[C@]2(C)C(=O)CC[C@H]12)CC=C	340	401	385
C[C@@H](C1CC[C@@]2(O)C3=CC(=O)[C@@H]4C[C@@H](O)[C@@H](O)C[C@]4(C)[C@H]3CC[C@]12C)[C@H](O)CCC(C)(C)O (stereo partly drawn)	411	424	488
CC/1=C2/N(C(=O)C(=C1)/NC3=CC(=NC=N3)N)C4(CCCCC4)NC2=O	594	537	641
O=C(NCC[S+](=O)([O-])c1ccc(C(F)(F)F)cn1)c1ccc(Cl)cc1	520	544	580
CN1CCN(C(=O)[C@H]2[C@@H](C(=O)O)[C@H]3CC[C@@H]2O3)CC1	628	620	699

SMILES	area under concentration-response curve (CU-ACC1)	area under concentration-response curve (NCI-H295R)	area under concentration-response curve (CU-ACC2)
N\C1=N\C2=C(N=C[N]2COC(CO)CO)C(=O)N1	567	605	645
O=C(O)Cn1nnc(-c2cc(N3CCC(Oc4cc(F)ccc4Br)CC3)no2)n1	491	515	594
Nc1nc(OC(c2ccc(-c3cccc(F)c3)cc2)C(F)(F)F)cc(-c2ccc(C[C@@H](N)C(=O)O)cc2)n1 (stereo partly drawn)	464	449	488
CC(=O)NC(C)c1ccc(Oc2ccc(OC(C)C)cc2)cc1 (stereo not drawn)	539	547	605
Cn1cc(-c2ccc(F)c(C(F)(F)F)c2)nc1C1CCN(c2ncnc3[nH]ncc23)CC1	471	510	555
COc1ccc2cc([C@H](C)C(=O)O)ccc2c1	503	524	510
CC[C@H](C)C(=O)O[C@H]1C[C@@H](C)\C=C2\C=C/[C@H](C)[C@H](CC[C@@H]3C[C@@H](O)CC(=O)O3)[C@@H]12	576	576	647
CCN(CC)CCCC(C)Nc1ccnc2cc(Cl)ccc12 (stereo not drawn)	464	583	638
CCOC1=CC=C(C=C1)N2C(=O)C3=CC=CN=C3/N=C2/[C@@H](C)N(CC4=CC=CN=C4)C(=O)CC5=CC=C(F)C(=C5)C(F)(F)F	516	569	606
CN1CCC(CC1)COC2=CN=C(N=C2)C3=CC(=CC=C3)CN4/N=C(\C=C/C4=O)C5=CC(=CC=C5)C#N	474	549	596
Cn1cc(-c2c[nH]c3ncnc(N4CCOCC4)c23)cn1	543	576	610
Cc1ccc(Nc2nccc(N(C)c3ccc4c(C)n(C)nc4c3)n2)cc1[S+](N)(=O)[O-]	516	570	620
Nc1nc(F)nc2c1ncn2[C@@H]1O[C@H](CO)[C@@H](O)[C@@H]1O	528	510	577
COc1cccc(Nc2c(C(N)=O)cnc3c(C)cc([S+](=O)([O-])c4cccc(C(=O)N(C)C)c4)cc23)c1	466	545	578
COc1ccc2[nH]cc(CCNC(C)=O)c2c1	592	578	668
C#C[C@]1(O)CC[C@H]2[C@@H]3CCc4cc(OC)ccc4[C@H]3CC[C@@]21C	414	457	475
N/C1=N/C(=O)C/2=C(NC[C@@H](CNC3=CC=C(C=C3)C(=O)N[C@@H](CCC([O-])=O)C([O-])=O)N2C=O)\N1	494	529	552
CCNC(=O)Nc1ccc(Oc2ncnc(N)c2/C=N/OC)cc1Cl	509	567	645
O=C(O)c1ccc(CCCc2ccc(OCCc3ccc(F)cc3)cc2)o1	536	548	616
Cc1cc2c(cc1C1(c3ccc(C(=O)O)cn3)CC1)C(C)(C)CCC2(C)C	504	514	598
Cc1cc(/C=c2/sc3nc4ccccc4n3c2=O)c(C)n1-c1ccccc1	569	549	625
CO[C@H]1/C=C/O[C@@]2(C)Oc3c(C)c(O)c4c(O)c(c5c(nc6cc(C)ccn65)c4c3C2=O)NC(=O)/C(C)=C\C=C\[C@H](C)[C@H](O)[C@@H](C)[C@@H](O)[C@@H](C)[C@H](OC(C)=O)[C@@H]1C	475	529	557
COc1cc([C@H]2Oc3cc([C@H]4Oc5cc(O)cc(O)c5C(=O)[C@@H]4O)ccc3O[C@@H]2CO)ccc1O	585	587	632

Reference: the supplement of paper PMC10949913
